# Test results published in patent publication US20240374746A1, “SIRP-ALPHA ANTIBODIES AND CONJUGATES” (Tallac Therapeutics, Inc., priority 2021, published 2024).
# Experiments:
# [1] = test system: Ramos-Blue Cells NF-kB/AP-1 Reporter B lymphocytes; experiment: Ramos NFkb Reporter Assay; format: cell-based, human; conditions: 1 uM to 64 pM CpG, 24 h; compared to 12070 and ODN2006
# Method: For Ramos NFkb Reporter Assay, Ramos-Blue Cells NF-kB/AP-1 Reporter B lymphocytes were purchased from Invivogen. Cells were grown and maintained in complete DMEM supplemented with 2 mM L-glutamine, 10% FBS, 100 ug/mL Normacin, Pen-Strep, 100 ug/mL Zeocin. Stimulation of the Ramos-Blue cells was performed. Briefly, cells were rinsed in growth medium without antibiotics. Cells were counted and resuspended in fresh complete DMEM without selection antibiotics at a density of 2×10^6 cell/mL. 20 uL of 10 uM CpG 7-7, CpG 12070 and ODN2006 titrated 1:5 were added to a flat-bottom 96-well plate, 180 uL of the cell suspension were added to a final concentration of 1 uM to 64 pM of CpG. Plate was incubated at 37° C. in a 5% CO2 incubator for 24 h. On day of assay, QB reagent and QB buffer were thawed before us. Quanti-Blue solution was prepared by adding 1 mL of QB reagent and […] QB buffer to 98 mL of sterile water in a sterile glass bottle. 180 μL of Quanti-Blue solution was dispensed per well into a new flat-bottom 96-well plate. 20 μL of supernatant from treated Ramos-Blue cells was then added to the 96-well plate. Plate was ten incubated for 6 h. Optical density was measured at OD655 using a plate reader (Molecular Devices), and data was tabulated in GraphPad Prism 9.0.
# [2] = test system: PBMC cells from three different donor lines (D559, D804 and D643); experiment: CpG activity on PBMCs from different donors (CD40 expression); format: cell-based, human; conditions: PBMCs of donors D559, D804 and D643; compared with 12070
# Method: Trima residuals were received from Vitalant and diluted 1:2 with Phosphate Buffered Saline (PBS, Gibco). Diluted blood was split into two tubes and underplayed with 15 mL Ficoll-Paque (GE Healthcare). Tubes were centrifuged for 30 minutes at 400×g. PBMCs were collected from the interface, resuspended and washed in FACS buffer (PBS with 0.5% Bovine Serum Albumin (Gibco)). After one wash, PBMCs were resuspended in Complete RPMI (RPMI+10% FBS).
# PBMCs were immediately plated onto a 96-well format (500K/well) in Complete RPMI. Five-fold serial dilutions were added to the cells from 1 uM to 64 pM of CpG oligonucleotides at 37° C. under 5% CO2 for 48 hours. Cells were pelleted by centrifugation for five minutes at 400×g and stained at 4° C. in Fixable Viability Dye eFluor 780 (Thermo Fisher) diluted 1:4000 in PBS. Cells were centrifuged and stained at 4° C. in FACS buffer for 30 minutes containing FcR Blocking Reagent (Miltenyi Biotec), anti-CD19, anti-CD20, anti-CD40, anti-HLADR and anti-CD80. Cells were centrifuged and washed twice in FACS buffer and fixed in 0.5% paraformaldehyde. Cells were analyzed on Attune NxT Flow Cytometer (Thermo Fisher), with subsequent data analysis by Flowjo 10.7 (Treestar). Dead cells were excluded by gating on the eFluor 780-negative population. B cells were identified as CD19+CD20+ cells and level of activation marker was assessed by median fluorescent intensity. […]
# [3] = test system: CD14+ monocytes and dendritic cells; experiment: CD40 activation in myeloid cells by unconjugated CpG oligonucleotides; format: cell-based; conditions: human myeloid cells; 40 nM, 48 hours; compared to the 12070 CpG oligonucleotide
# Method: Trima residuals were received from Vitalant and diluted 1:3 with Phosphate Buffered Saline (PBS, Gibco). Diluted blood was underplayed with 15 mL Ficoll-Paque (GE Healthcare). Tubes were centrifuged for 30 minutes at 400×g with break off. PBMCs were collected from the interface, resuspended and washed in FACS buffer (PBS with 0.5% Bovine Serum Albumin (Gibco)). After one wash, PBMCs were resuspended in Complete RPMI (RPMI+10% FBS). PBMCs were immediately plated onto a 96-well format (1e6/well) in Complete RPMI. CpG oligonucleotides were incubated with the cells at 40 nM concentration at 37° C. under 5% CO2 for 48 hours. Cells were pelleted by centrifugation for five minutes at 400×g and stained at 4° C. in Fixable Viability Dye eFluor 780 (Thermo Fisher) diluted 1:5000 in PBS. Cells were centrifuged and stained at 4° C. in FACS buffer for 60 minutes containing FcR Blocking Reagent (Miltenyi Biotec), anti-CD14, anti-CD11c, anti-CD3, anti-CD19, anti-CD56, anti-CD16, anti-HLADR, anti-CD40, and anti-CD86 (Thermo Fisher, Biolegend). Cells were centrifuged and washed twice in FACS buffer and fixed in 0.5% paraformaldehyde. Cells were analyzed on Attune NxT Flow Cytometer (Thermo Fisher), with subsequent data analysis by Flowjo 10.7 (Treestar). Dead cells were excluded by gating on the eFluor 780-negative population. […] Levels of activation marker were assessed by median fluorescent intensity.
# dendritic cells [4] = experiment: Dendritic cell activation (CD40) in human PBMCs; format: cell-based; conditions: 24 hours
# Method: Trima residuals were received from Vitalant and diluted 1:3 with Phosphate Buffered Saline (PBS, Gibco). Diluted blood was underplayed with 15 mL Ficoll-Paque (GE Healthcare). Tubes were centrifuged for 30 minutes at 400×g with break off. PBMCs were collected from the interface, resuspended and washed in FACS buffer (PBS with 0.5% Bovine Serum Albumin (Gibco)). After one wash, PBMCs were resuspended in Complete RPMI (RPMI, 10% FBS, 1× Pen/Strep, 1× Glutamax). PBMCs were immediately plated onto a 96-well format (1e6/well) in Complete RPMI. Three-fold serial dilutions were added to the cells from 300 nM to 0.4 nM for anti-SIRP-α antibody (heavy chain comprising the sequence of SEQ ID NO:66 and light chain comprising the sequence of SEQ ID NO:75) and anti-SIRP-α conjugate (heavy chain comprising the sequence of SEQ ID NO:66 and a light chain comprising the sequence of SEQ ID NO:75, conjugated to CpG oligo 7-7 (SEQ ID NO:35)). Free CpG 7-7 (SEQ ID NO:35) was titrated from 3 μM to 4.12 nM. Cells were incubated at 37° C. under 5% CO2 for 24 hours. […] Cells were analyzed on Attune NxT Flow Cytometer (Thermo Fisher), with subsequent data analysis by Flowjo 10.7 (Treestar). […] Levels of activation marker were assessed by median fluorescent intensity.
# dendritic cells [5] = experiment: Dendritic cell activation (CD40) in cynomolgus PBMCs; format: cell-based; conditions: 48 hours
# Method: Cynomolgus whole blood was received from BioIVT and diluted 1:3 with Phosphate Buffered Saline (PBS, Gibco). Diluted blood was underplayed with 15 mL 90% Ficoll-Paque (GE Healthcare) in PBS solution. Tubes were centrifuged for 30 minutes at 400×g with break off. Cells were collected from the interface, resuspended and washed in FACS buffer (PBS with 0.5% Bovine Serum Albumin (Gibco)). After one wash, cells were resuspended in ACK lysis buffer (Gibco) for 15 min at room temperature, washed in FACs buffer and centrifuged before repeating. Purified PBMCs were resuspended in Complete RPMI (RPMI, 10% FBS, 1× Pen/Strep, 1× Glutamax). PBMCs were immediately plated onto a 96-well format (0.3e6/well) in Complete RPMI. Three-fold serial dilutions were added to the cells from 1 μM to 1.4 nM of CpG oligonucleotide and 300 nM to 0.4 nM of anti-SIRP-α antibody (heavy chain comprising the sequence of SEQ ID NO:66 and light chain comprising the sequence of SEQ ID NO:75) and the corresponding antibody:CpG conjugate (heavy chain comprising the sequence of SEQ ID NO: 66 and light chain comprising the sequence of SEQ ID NO:75, conjugated to CpG oligo 7-7 (SEQ ID NO:35)) at 37° C. under 5% CO2 for 48 hours. […] Cells were analyzed on Attune NxT Flow Cytometer (Thermo Fisher), with subsequent data analysis by Flowjo 10.7 (Treestar). […] Levels of activation marker were assessed by median fluorescent intensity.
# [6] = test system: THP-1-Dual hTLR9 cell line, interferon regulatory factor (IRF) pathway; experiment: THP-1-Dual hTLR9 reporter assay, IRF pathway (secreted Lucia luciferase); format: cell-based; conditions: 24 hours; F(ab′)2 anti-human IgG Fcγ cross-linking agent; read-out: EC50 of IRF induction
# Method: THP-1-Dual hTLR9 cell line (thpd-nfis, Invivogen) was derived from human THP-1 monocytes engineered to overexpress the human TLR9 (hTLR9) gene and featuring two reporter genes allowing for simultaneous assessment of the NF-kB pathway by monitoring the activity of an inducible secreted embryonic alkaline phosphatase (SEAP), and the interferon regulatory factor (IRF) pathway by monitoring the activity of an inducible secreted Lucia luciferase. Briefly, 250,000 cells in 100 uL of growth media (RPMI 1640 (Gibco), 2 mM L-glutamine (Gibco), 25 mM HEPES (Gibco), 10% FBS (Gibco), 100 U/mL penicillin (Gibco), 100 ug/mL streptomycin (Gibco), 100 ug/mL Normacin (Invivogen) were plated in 96-well flat-bottom plates (Nunc). An 8 step 2-fold serial dilution of anti-SIRP-α antibody or anti-SIRP-α antibody conjugate was added to cells in 50 μL for a final concentration range of 200 nM-1.56 nM. 10 μg/mL of a F(ab′)2 fragment goat anti-human, IgG Fcγ fragment specific (Jackson Immuno Research) was added in 50 μL of growth media as a cross-linking agent. Cells were incubated at 37 C for 24 hours. NF-kB and IRF induction from supernatant was detected according to manufacturer's protocol. EC50 values were derived using three-parameter […] regression curve fir in Prism 9 (GraphPad), and data were presented as fold-over media control. […]
substance,measurement,setting,value
CpG 7-7 (DNA TCGTCGTGTCGTTT; modified_base 1 OTHER; 5-Bromo-2'-deoxyuridine; modified_base 13..14 OTHER; 2'-O-Methyl-Thymidine; modified_base 1..4 OTHER; phosphorothioate linkages; misc_feature 4^5 phosphotriester linker-PEG24-NH2; modified_base 5..9 OTHER; modified_base 9^10 OTHER; phosphorodithioate linkage; modified_base 10..14 OTHER; misc_feature 14 3' spacer C3),activity in NFkb reporter assay,[1],significantly higher activity
same,activity as observed by CD40 expression,[2],higher activities
same,activation of CD40,[3],higher activation of CD40
same,surface marker expression (CD40) on dendritic cells,dendritic cells [4],potent TLR9 agonist with targeted dendritic cell activation across species
same,surface marker expression (CD40) on dendritic cells,dendritic cells [5],potent TLR9 agonist with targeted dendritic cell activation across species
same,EC50,[6],84 nM
